Common to all, as to assay type: cell-based, Propionibacterium acnes
One assay relates to HL043PA1 strain (RT5). The assay can be described thus: MIC by broth microdilution method, HL043PA1 strain. As to conditions: Cutibacterium acnes, read-out: MIC against acne bacterium strain HL043PA1 strain (RT5). The procedure:
(§1) An MIC is measured herein according to the broth microdilution method which is the standard method of Japanese Society of Chemotherapy.
(§2) The antibacterial activity of a test substance was determined based on the minimum inhibitory concentration (MIC). An MIC was measured according to the broth microdilution method which is the standard method of Japanese Society of Chemotherapy.
(§3) One-loopful of each acne bacterium strain listed in Table 1 was scraped off and inoculated into 5 mL of a GAM broth slant agar medium (pH 7.0, Nissui Pharmaceutical Co., Ltd.).
The inoculated acne bacterium strain was precultured at 37° C. in a nitrogen atmosphere (anaerobic condition) for 48 hours. […]
(§4) Each fatty acid (Tokyo Chemical Industry Co., Ltd.) listed in Table 2 was dissolved in dimethylsulfoxide (DMSO) as a solvent such that the concentration became 10,000 μg/mL, and used as a test substance.
(§5) Each of strain suspensions (5.0×10^4 cfu/mL) was aliquoted in a 96-well round bottom microplate, each of the test substance (fatty acid concentration 10,000 μg/mL) was added at a 1/10 volume to the aliquot and mixed to prepare measurement samples (fatty acid concentration: 1,000 μg/mL). Measurement samples in 2-fold dilution series were prepared using the strain suspension (fatty acid concentration from 0.48 to 1,000 μg/mL).
The measurement samples were incubated under an anaerobic condition at 37° C. for 2 days. The presence or absence of a precipitation of test microbial cells after the incubation was examined and the minimum concentration at which the precipitation of microbial cells […] was regarded as the MIC (μg/mL) of the test substance against the acne bacterium strain.

A further assay relates to HL110PA3 strain (RT6). The assay can be described thus: MIC by broth microdilution method, HL110PA3 strain. As to conditions: Cutibacterium acnes, read-out: MIC against acne bacterium strain HL110PA3 strain (RT6).
The next assay relates to HL053PA1 strain (RT4). The assay can be described thus: MIC by broth microdilution method, HL053PA1 strain. As to conditions: Cutibacterium acnes, read-out: MIC against acne bacterium strain HL053PA1 strain (RT4). The procedure:
as §1, §2, §3
The inoculated acne bacterium strain was precultured at 37° C. in a nitrogen atmosphere (anaerobic condition) for 48 hours. The precultured microbial cells were diluted in a modified GAM broth liquid medium (pH 6.0) to a concentration of 5.0×10^4 cfu/mL (viable cell count per OD660=1 is 2.0×10^9 cfu/mL), to prepare strain suspensions.
as §4, §5
[…] The presence or absence of a precipitation of test microbial cells after the incubation was examined and the minimum concentration at which the precipitation of microbial cells […] was regarded as the MIC (μg/mL) of the test substance against the acne bacterium strain.

Assay [1] concerns HL053PA1 strain (RT4) and HL043PA1 strain (RT5) versus HL110PA3 strain (RT6). In words: Strain-selective antibacterial activity (average of MICRT6/MICRT4 and MICRT6/MICRT5). An excerpt: Herein, “acne strain-selective antibacterial activity” or “strain-selective antibacterial activity” means an index indicating better inhibition of growth of a dominant strain in acne patients compared to that of a dominant strain in healthy subjects. It is expressed by the average value of the values (MICRT6/MICRT4, and MICRT6/MICRTS) obtained by dividing the minimum inhibitory concentration (MIC) of an object substance with respect to the dominant strain in healthy subjects (RT6 strain) (MICRT6) respectively by the MIC of the object substance with respect to the dominant strain in acne patients (RT4 strain) (MICRT4), and by the MIC of the object substance with respect to the dominant strain in acne patients (RT5 strain) (MICRT5).
The strain-selective antibacterial activity of each test substance (Table 2, right-most column) was evaluated based on the following rating criteria (Table 3). When the strain-selective antibacterial activity is indicated by a numerical range, the rating was based on the minimum value thereof.

Where [2] appears, read: control antibiotics, Comparative Example 2, method as Example 1.
Setting [3] is: control antibiotics, Comparative Example 2, method as Example 1, LOD = MIC <0.48 ng/mL.
Where [4] appears, read: control antibiotics, Comparative Example 2, for LOD calculated using 0.48 ng/mL as MIC of the RT6 strain.
Setting [5] is: control antibacterial agents, Comparative Example 1, method as Example 1.
[6] abbreviates: control antibacterial agents, Comparative Example 1.

Converted amounts (≈) assume the structure as drawn. Read-outs that look alike come from different tables or passages of the source.

For `CN(C)c1ccc(O)c2c1C[C@H]1C[C@H]3[C@H](N(C)C)C(O)=C(C(N)=O)C(=O)[C@@]3(O)C(O)=C1C2=O` [Minocycline, reference compound], the MIC in the assay with HL043PA1 strain (RT5) (setting [2]) is 0.49 µg/mL (≈ 1.07 µM); in the assay on HL110PA3 strain (RT6) (setting [3]), less than 0.00048 µg/mL; in the assay on HL053PA1 strain (RT4) (setting [2]), 0.24 µg/mL (≈ 0.525 µM). In assay [1] (setting [4]), the Strain-selective antibacterial activity is reported as <1.5 × 10^−3.
On to `CCO` [Ethanol, reference compound], for which the figures for the MIC with HL043PA1 strain (RT5) (setting [5]), with HL110PA3 strain (RT6) (setting [5]) and with HL053PA1 strain (RT4) (setting [5]) were 500 µg/mL (≈ 10900 µM), 500 µg/mL (≈ 10900 µM) and more than 1000 µg/mL, respectively. This molecule also displayed a Strain-selective antibacterial activity in assay [1] (setting [6]) of less than 0.75.
`CC1CCc2c(N3CCC(O)CC3)c(F)cc3c(=O)c(C(=O)O)cn1c23` (stereo not drawn) [Nadifloxacin, reference compound]: the MIC in the assay on HL043PA1 strain (RT5) (setting [2]) was 0.031 µg/mL (≈ 0.086 µM); in the assay on HL110PA3 strain (RT6) (setting [3]), less than 0.00048 µg/mL; with HL053PA1 strain (RT4) (setting [2]), 0.031 µg/mL (≈ 0.086 µM). Moreover, the Strain-selective antibacterial activity in assay [1] (setting [4]) is reported as <1.5 × 10^−2.
Consider `CC[C@H]1OC(=O)[C@H](C)[C@@H](O[C@H]2C[C@@](C)(OC)[C@@H](O)[C@H](C)O2)[C@H](C)[C@@H](O[C@@H]2O[C@H](C)C[C@H](N(C)C)[C@H]2O)[C@](C)(O)C[C@@H](C)/C(=N\OCOCCOC)[C@H](C)[C@@H](O)[C@]1(C)O` [Roxithromycin, reference compound], for which the minimum inhibitory concentration (MIC) with HL043PA1 strain (RT5) (setting [2]) amounted to 1000 µg/mL (≈ 1190 µM); in the assay with HL110PA3 strain (RT6) (setting [3]), 0.0038 µg/mL (≈ 0.00454 µM); in the assay on HL053PA1 strain (RT4) (setting [2]), 500 µg/mL (≈ 597 µM).
In the case of `CC(C)c1cccc(=O)c(O)c1` [Hinokitiol, reference compound], the MIC with HL043PA1 strain (RT5) (setting [5]), with HL110PA3 strain (RT6) (setting [5]) and with HL053PA1 strain (RT4) (setting [5]) was 31.3 µg/mL (≈ 191 µM) throughout. The Strain-selective antibacterial activity in assay [1] (setting [6]) is on record as 1.0.
With `C[C@H]1c2cccc(O)c2C(=O)C2=C(O)[C@]3(O)C(=O)C(C(N)=O)=C(O)[C@@H](N(C)C)[C@@H]3[C@@H](O)[C@@H]21` [Doxycycline, reference compound], the results for the MIC in the assay with HL043PA1 strain (RT5) (setting [2]), in the assay with HL110PA3 strain (RT6) (setting [3]) and with HL053PA1 strain (RT4) (setting [2]) were 2 µg/mL (≈ 4.5 µM), 0.00048 µg/mL (≈ 0.00108 µM) and 0.98 µg/mL (≈ 2.21 µM), respectively. For the same molecule, in assay [1] (setting [4]), the Strain-selective antibacterial activity is reported as 3.6 × 10^−4.
As to `CCC[C@@H]1C[C@@H](C(=O)N[C@@H]([C@H]2O[C@H](SC)[C@H](O)[C@@H](O)[C@H]2O)[C@H](C)Cl)N(C)C1` [Clindamycin, reference compound], the MIC was determined as 63 µg/mL (≈ 148 µM) with HL043PA1 strain (RT5) (setting [2]), 0.031 µg/mL (≈ 0.0729 µM) with HL110PA3 strain (RT6) (setting [3]) and 31 µg/mL (≈ 72.9 µM) in the assay with HL053PA1 strain (RT4) (setting [2]). The Strain-selective antibacterial activity in assay [1] (setting [4]) is 7.5 × 10^−4.

(Values after US20190247353A1, “ACNE STRAIN-SELECTIVE ANTIBACTERIAL AGENT” (MOMOTANI JUNTENKAN CO., LTD., priority 2016, published 2019).)
